Results from ChEMBL document CHEMBL5126599, “Development of S-aryl dithiocarbamate derived novel antiproliferative compound exhibiting tubulin bundling” (Bioorg Med Chem, 2022).
Activity calls are given as the source filed them. No cut-off for these calls is given here.

Columns and labels:
[1] = system: A549; test: Antiproliferative activity against human A549 cells assessed as reduction in cell viability incubated for 72 hrs by MTT assay; type: functional, cell-based; conditions: A549, 72 h
[2] = molecular target: T1, Tubulin (Homo sapiens) (UniProt P68371+Q9H4B7+P0DPH7+P68366+Q13509+Q71U36+P04350+Q3ZCM7+P07437+P68363+Q9BQE3+Q6PEY2+Q13885+Q9BVA1+Q9BUF5); test: Induction of microtubule stabilization in human HeLa cells assessed as microtubule bundling at 0.5 uM for 24 hrs by DAPI staining based fluorescence microscopy; type: cell-based
[3] = molecular target: T1, Tubulin (Homo sapiens); test: Induction of microtubule stabilization in human HeLa cells assessed as increase in alpha-tubulin level in cell pellet at 0.5 uM for 48 hrs by Western blot analysis; type: cell-based; conditions: DDE = dose-dependent effect
[4] = system: MCF7; test: Antiproliferative activity against human MCF7 cells assessed as reduction in cell viability incubated for 72 hrs by MTT assay; type: functional, cell-based; conditions: MCF7, 72 h
[5] = system: HeLa; test: Induction of apoptosis in human HeLa cells assessed as fold change as increase in necrotic cells at 0.432 to 0.864 uM for 72 hrs by Annexin-V/PI staining based fluorescence microscopy relative to control; type: functional; conditions: dose 0.432-0.864 µM
[6] = system: HeLa; test: Induction of apoptosis in human HeLa cells assessed as increase in p53 protein expression at 0.432 to 0.864 uM for 72 hrs by Western blot analysis; type: functional, cell-based; conditions: dose 0.432-0.864 µM, DDE = dose-dependent effect
[7] = system: HeLa; test: Induction of cell cycle arrest in human HeLa cells assessed as fold change as increase in accumulation at G2/M phase at 0.432 to 0.864 uM for 72 hrs by PI staining based flow cytometry relative to control; type: functional; conditions: dose 0.432-0.864 µM
[8] = system: HeLa; test: Induction of cell cycle arrest in human HeLa cells assessed as accumulation at G2/M phase at 0.432 to 0.864 uM for 72 hrs by DAPI staining based fluorescence microscopy; type: functional; conditions: dose 0.432-0.864 µM, DDE = dose-dependent effect
[9] = system: HeLa; test: Induction of cell cycle arrest in human HeLa cells assessed as increase in cyclin B1 expression at 0.432 to 0.864 uM for 72 hrs by Western blot analysis; type: functional, cell-based; conditions: dose 0.432-0.864 µM, DDE = dose-dependent effect
[10] = molecular target: T1, Tubulin (Homo sapiens); test: Induction of microtubule stabilization in human HeLa cells assessed as increase in alpha-tubulin level in cell pellet at 0.5 to 1 uM for 48 hrs by Western blot analysis; type: cell-based; conditions: dose 0.5-1 µM, DDE = dose-dependent effect
[11] = system: HeLa; test: Antiproliferative activity against human HeLa cells assessed as reduction in number of colonies at 0.432 to 0.864 uM for 72 hrs with media renew every 2 days and measured upto 2 weeks by crystal violet staining based microscopic analysis; type: functional, cell-based; conditions: dose 0.432-0.864 µM, DDE = dose-dependent effect
[12] = molecular target: T1, Tubulin (Homo sapiens); test: Induction of microtubule stabilization in human HeLa cells assessed as microtubule bundling at 0.5 to 1 uM for 24 hrs by DAPI staining based fluorescence microscopy; type: cell-based; conditions: dose 0.5-1 µM, DDE = dose-dependent effect
[13] = system: HeLa; test: Induction of apoptosis in human HeLa cells assessed as increase in p21 protein expression at 0.432 to 0.864 uM for 72 hrs by Western blot analysis; type: functional, cell-based; conditions: dose 0.432-0.864 µM
[14] = system: HeLa; test: Induction of apoptosis in human HeLa cells assessed as fold change as increase in apoptotic cells at 0.432 to 0.864 uM for 72 hrs by PI staining based flow cytometry relative to control; type: functional; conditions: dose 0.432-0.864 µM
[15] = system: MDA-MB-231; test: Antiproliferative activity against human MDA-MB-231 cells assessed as reduction in cell viability incubated for 72 hrs by MTT assay; type: functional, cell-based; conditions: MDA-MB-231, 72 h
[16] = system: HeLa; test: Antiproliferative activity against human HeLa cells assessed as reduction in cell viability incubated for 72 hrs by MTT assay; type: functional, cell-based

Structure (SMILES)	IC50 [1] [µM]	other results
CC(=O)O[C@H]1C(=O)[C@@]2(C)[C@H]([C@H](OC(=O)c3ccccc3)[C@]3(O)C[C@H](OC(=O)[C@H](O)[C@@H](NC(=O)c4ccccc4)c4ccccc4)C(C)=C1C3(C)C)[C@]1(OC(C)=O)CO[C@@H]1C[C@@H]2O	–	Activity [2]: Active; Activity [3]: Dde
CC(C)(C)OC(=O)N1CCN(C(=S)Sc2ccc(F)cc2)CC1	1.56	–
CC(C)(C)c1ccc(SC(=S)N2CCCCC2)cc1	9.13	–
CC(C)(C)OC(=O)N1CCN(C(=S)Sc2ccccc2Cl)CC1	1.56	–
S=C(Sc1ccccc1)N1CCOCC1	2.52	–
CCCCN(CCCC)C(=S)Sc1ccccc1	9.76	–
CC(C)(C)OC(=O)N1CCN(C(=S)Sc2ccc(Br)cc2)CC1	1.81	–
Cc1ccc(SC(=S)N2CCN(C(=O)OC(C)(C)C)CC2)cc1	2.1	–
S=C(Sc1ccccc1)N1CCCCC1	7.93	–
Cc1ccccc1SC(=S)N1CCN(C(=O)OC(C)(C)C)CC1	2.27	–

The remaining molecules from weak to strong by IC50 [1], led by results:

IC50 [1] [µM]	Structure (SMILES)	other results
1.46	Cc1cc(C)c(SC(=S)N2CCN(C(=O)OC(C)(C)C)CC2)c(C)c1	–
1.07	CC(C)(C)OC(=O)N1CCN(C(=S)Sc2ccc(Cl)cc2)CC1	–
0.914	Cc1cccc(SC(=S)N2CCN(C(=O)OC(C)(C)C)CC2)c1	–
0.769	CC(C)(C)OC(=O)N1CCN(C(=S)Sc2ccc(C(C)(C)C)cc2)CC1	–
0.712	COc1ccc(SC(=S)N2CCN(C(=O)OC(C)(C)C)CC2)cc1	–
0.634	CC(C)(C)OC(=O)N1CCN(C(=S)Sc2cccc(Cl)c2)CC1	–
0.539	Cc1ccc(C)c(SC(=S)N2CCN(C(=O)OC(C)(C)C)CC2)c1	–
0.447	CC(C)(C)OC(=O)N1CCN(C(=S)Sc2ccccc2)CC1	IC50 [4]: 1.75 µM; fold change (FC) [5]: 3; Activity [6]: Dde; fold change (FC) [7]: 4; Activity [8]: Dde; Activity [9]: Dde; Activity [10]: Dde; Activity [11]: Dde; Activity [12]: Dde; Activity [13]: Active; fold change (FC) [14]: 4; IC50 [15]: 0.615 µM; IC50 [16]: 0.432 µM
